From publication PMC13538172, “Zonisamide nanodiamonds for brain targeting: A comprehensive study utilising in silico, in vitro, in vivo, and molecular investigation for successful nose-to-brain delivery for epilepsy management” (Drug Delivery and Translational Research, 2025) come the findings set out here.

A short description of data set [1]: Brain uptake, biodistribution and pharmacokinetics of 99mTc-radiolabelled ZNS in mice. The format is in vivo, male Swiss albino mice. The note with it: for Cmax (%ID/g), blood / Cmax (%ID/g), brain: n = 6. The method, then: Then, 100 μL of freshly eluted ^99mTc-pertechnetate; 99mTcO4- (200 MBq) was added to the above mixture, and the reaction mixture was vigorously shaken for 15 minutes. Radiochromatographic analysis was developed using the ascending paper chromatography (PC) technique to monitor the radiochemical purity of the ^99mTc-labelled compound using two distinct mobile phases; acetone was used to detect free pertechnetate, which migrated to Rf = 1, while the other component remained at Rf = 0 and a second mobile phase, comprising NH4OH, C2H5OH, and H2O (1:2:5), was used to determine the reduced hydrolyzed (R-H) 99mTc-colloid, which remained at Rf = 0, whereas ^99mTc-labelled compound and free pertechnetate migrated to Rf = 1 [7, 47]. Two drops of the reaction product and free 99mTcO4 were placed on two strips of Whatman PC on the origin line, 2 cm far from the base, to be developed by developing solvents. The experiments were conducted in triplicate to ensure the reproducibility and reliability of the results. As the developing process was terminated, the strip was dried, trimmed into 1 cm size pieces, and counted using the sodium iodide (NaI) γ-ray scintillation counter (A good-type NaI scintillation γ-Counter model scalar rate meter SR7 (Nuclear Enterprises Ltd., USA). The radiochemical yield percent of ^99mTc–ZNS was calculated using Eq. (3)3 %Radiochemicalyield=100-%Free99mTc-%colloid99mTc
The experiment protocol was approved by the University of October for Modern Sciences and Arts (MSA) ethical committee (Pt2/Ec2/2022PD), where the principles of the Declaration of Helsinki were followed. The mice were maintained in cabins of a size that suits groups of five at room temperature with a 12 h light/dark cycle and accessibility to food and water ad libitum. The mice were divided into four groups. Mice in group 1 served as a control and received no treatments. Mice in group 2 were given ZNS orally using an oral gavage (100 μL). Mice in group 3 were injected intranasally with ^99mTc–ND-ZNS complex in each nostril (100 μL) with the help of a micropipette attached with a low-density polyethene tube having 0.1 mm internal diameter at the delivery site. Mice in group 4 were injected intranasally free ^99mTc–-ZNS similarly. The mice were held from the back in a slanted position during nasal administration of the formulations. Next, mice were anesthetized by chloroform at 5, 15, 30, 60, 120 min post-injection (n=6 mice/time point). Samples of fresh blood and different organs were collected, washed twice using saline solution, made free from adhering tissue/fluid, and weighed. The radioactivity in each tissue/organ was measured using a shielded well-type gamma scintillation counter. The radiopharmaceutical uptake per gram in each tissue/organ was calculated as a fraction of the administered dose. Percent injected dose per gram organ and body fluid (mean %ID per gram organ and body fluid ± SD) in a population of six mice were calculated, and the significance level was set at […].
Drug concentrations in plasma and brain were investigated based on the measured radioactivity as previously discussed. Blood samples were collected at 5, 15, 30, 60, and 120 min post-injection (n=6 mice/time interval). Plasma and brain pharmacokinetic parameters were calculated by non-compartmental analysis using the Microsoft Excel Pharmacokinetics add-on. The rate of drug absorption was estimated through maximum plasma/brain concentration (Cmax), time for maximum plasma/brain concentration (Tmax), the extent of drug absorption via the area under the curve from zero to time (AUC0-t), and the area under the curve from zero to infinity (AUC 0-∞). The data in the form of mean values (± SD) of three determinations were statistically analyzed by applying one-way ANOVA using Minitab 17 software. Data was expressed as mean±S.D and analyzed by ANOVA followed by Tukey's test for multiple comparisons. Differences were considered significant when p was less than 0.05. […]

The test system of data set [2] is matrix metallopeptidase-9 (MMP-9). Description: Serum MMP-9 by ELISA in TLE rats. The data set is classed as in vivo. The note with it: compared to the TLE control rats; intranasal, 7 days. The procedure: (§1) Temporal lobe epilepsy (TLE) was induced in rats using the pilocarpine model according to the method of Arshad et al.. Prior to the experiment, rats were housed in plastic cages at October University for Modern Science and Arts under controlled environmental conditions (temperatures of 25°±3°C and 50% humidity) with free access to water and softened standard pellet chow. The rats were injected with pilocarpine (300 mg/kg; i.p.) to induce status epilepticus (SE). Atropine (1 mg/kg; i.p.) was injected 30 minutes before pilocarpine injection to antagonize the peripheral muscarinic activity. SE was defined using the modified Racine scale by observing seizure severity categorized as stages 4 and 5. […] The SE seizures were left to last for 3 hours to induce hippocampus damage, after which diazepam (10 mg/kg; i.p.) was injected to attenuate the seizures. Lubricant ophthalmic gel was applied with a cotton swab to each eye to prevent the corneas from drying out during the seizures. The rats were hydrated with sterile Ringer's lactate injections (1 mL, i.p.) for 3 days post-SE induction. […]
(§2) The serum levels of neuron-specific enolase (NSE), matrix metallopeptidase-9 (MMP-9), neurofilament light polypeptide (NEFL), and brain-derived neurotrophic factor (BDNF) were measured by ELISA technique using the following standard kits CAT no. […]
On the technique in general: In an ELISA, binding on a coated surface is turned into a signal by an enzyme label.

The subject of data set [3] is neurofilament light polypeptide (NEFL). In words: Serum NEFL by ELISA in TLE rats. The format is in vivo. As to conditions: compared to the TLE control rats; intranasal, 7 days. The method, then:
as §1, §2

“And” between values parts separate entries of the source, which are not always exact repeats. Identical values can stand only once.

As for `NS(=O)(=O)Cc1noc2ccccc12` [ZNS, Zonisamide], in data set [1] (5-120 min, Fig. 6, result in words), the “tissue distribution of ZNS (brain, liver, kidney, stomach, lungs)” value is given as “minimal distribution in the brain”. For the same compound, in data set [1] (intranasal), the “Brain/Blood Ratio (AUC Brain/AUC Blood)” value is given as 0.24; the “LogBB at 15 min” value was −0.55±0.06; the “LogBB at 120 min” value is −0.477; the “AUC(0-120min), blood” value was determined as 125.25 ± 21.3 %ID/g.min. Moreover, in data set [1] (intranasal), the “Tmax (min), blood” value stood at 15 min; the “Cmax (%ID/g), blood” value was found to be 1.8 ± 0.7 %ID/g; the “AUC(0-120min), brain” value came to 31 ± 9.6 %ID/g.min; the “Tmax (min), brain” value was found to be 15 min. Moreover, the “Cmax (%ID/g), brain” value in data set [1] (intranasal) is recorded as 0.5 ± 0.2 %ID/g. The “LogBB at 15 min” value in data set [1] (intranasal, listed as free ZNS) was −0.556. In data set [1] (oral), the “LogBB at 15 min” value was −0.865; the “LogBB at 120 min” value is on record as −1.301; the “AUC(0-120min), blood” value turned out to be 77.6 ± 15.3 %ID/g.min; the “Tmax (min), blood” value was determined as 30 min. Moreover, in data set [1] (oral), the “Cmax (%ID/g), blood” value is listed as 1.4 ± 0.07 %ID/g; the “AUC(0-120min), brain” value is recorded as 7.1 ± 3.1 %ID/g.min; the “Tmax (min), brain” value came out at 15 min; the “Cmax (%ID/g), brain” value was determined as 0.2 ± 0.02 %ID/g. Moreover, in data set [1] (oral, listed as free ZNS), the “Brain/Blood Ratio (AUC Brain/AUC Blood)” value is 0.09 and 0.091. The “decrease in serum level of MMP-9” value in data set [2] was determined as 40.1%. Further, in data set [3], the “decrease in serum level of NEFL” value amounted to 44.6%.
